Patent US10752635B2, “Indazole compounds and uses thereof” (Incyte Corporation, priority 2018, dated 2020)

Biological target: HPK1 (Homo sapiens (Human), UniProt Q92918)
Test: HPK1 Kinase Binding Assay
Details: active HPK1 (SignalChem M23-11G), tracer 222, LanthaScreen Eu-Anti GST antibody, one hour at 25° C.
Method: A stock solution of 1 mM test compound was prepared in DMSO. The compound plate was prepared by 3-fold and 11-point serial dilutions. 0.1 μL of the compound in DMSO was transferred from the compound plate to the white 384 well polystyrene plates. The assay buffer contained 50 mM HEPES, pH 7.5, 0.01% Tween-20, 5 mM MgCl2, 0.01% BSA, and 5 mM DTT. 5 μL of 4 nM active HPK1 (SignalChem M23-11G) prepared in the buffer was added to the plate. The enzyme concentration given was based on the given stock concentration reported by the vender. […] After one hour incubation at 25° C., the plates were read on a PHERAstar FS plate reader (BMG Labtech). Ki values were determined.

Sequence of HPK1 (Q92918 1-346 limits assumed): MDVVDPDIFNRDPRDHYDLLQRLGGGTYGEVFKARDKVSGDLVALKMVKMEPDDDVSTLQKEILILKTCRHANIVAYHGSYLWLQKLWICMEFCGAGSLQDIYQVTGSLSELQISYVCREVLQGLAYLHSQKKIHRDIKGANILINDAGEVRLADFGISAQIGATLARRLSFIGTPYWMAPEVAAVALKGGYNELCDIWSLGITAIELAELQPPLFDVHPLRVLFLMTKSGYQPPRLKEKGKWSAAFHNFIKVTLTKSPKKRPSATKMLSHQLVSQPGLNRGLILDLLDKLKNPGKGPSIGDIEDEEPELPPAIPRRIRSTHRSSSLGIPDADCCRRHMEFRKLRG

| Compound | Ki [µM] |
| --- | --- |
| COc1cccc(F)c1-c1nccc(C(=O)Nc2cc(F)c3nn(C)cc3c2N2C[C@@H](N)C[C@H]2CO)n1 (single isomer, unassigned; peak 1) [3, Peak 1] | < 0.1 |
| COc1cccc(F)c1-c1nccc(C(=O)Nc2cc(F)c3nn(C)cc3c2N2CCC3(CCNC3=O)C2)n1 (single isomer, unassigned; peak 1) [8, Peak 1] | < 0.1 |
| COc1cccc(F)c1-c1nccc(C(=O)Nc2cc(F)c3nn(C)cc3c2-c2ccccc2C)n1 (single isomer, unassigned; peak 1) [14, Peak 1] | < 0.1 |
| COc1cccc(F)c1-c1nccc(C(=O)Nc2cc(C#N)c3nn(C)cc3c2N2CCC[C@@H](N)C2)n1 (single isomer, unassigned; peak 1) [15, Peak 1] | < 0.1 |
| CNC(=O)c1cc(NC(=O)c2ccnc(-c3c(F)cccc3OC)n2)c(N2CCC[C@@H](N)C2)c2cn(C)nc12 (single isomer, unassigned; peak 1) [16, Peak 1] | 0.5 to 5 |
| COc1cccc(F)c1-c1nccc(C(=O)Nc2cc(F)c3c(cnn3C)c2N2CCC3(CCNC3=O)C2)n1 (single isomer, unassigned; peak 2) [8, Peak 2] | < 0.1 |
| COc1cccc(F)c1-c1nccc(C(=O)Nc2cc(F)c3c(cnn3C)c2N2CCC[C@@H]2CN)n1 (single isomer, unassigned; peak 2) [10, Peak 2] | < 0.1 |
| COc1cccc(F)c1-c1nccc(C(=O)Nc2cc(F)c3c(cnn3C)c2-c2ccccc2C)n1 (single isomer, unassigned; peak 2) [14, Peak 2] | < 0.1 |
| COc1cccc(F)c1-c1nccc(C(=O)Nc2cc(C#N)c3c(cnn3C)c2N2CCC[C@@H](N)C2)n1 (single isomer, unassigned; peak 2) [15, Peak 2] | < 0.1 |
| CNC(=O)c1cc(NC(=O)c2ccnc(-c3c(F)cccc3OC)n2)c(N2CCC[C@@H](N)C2)c2cnn(C)c12 (single isomer, unassigned; peak 2) [16, Peak 2] | < 0.1 |
| COc1cccc(F)c1-c1nccc(C(=O)Nc2cc(F)c3nn(C)cc3c2N2CCOCC2)n1 [7, Peak 1] | < 0.1 |
| COc1cccc(F)c1-c1nccc(C(=O)Nc2cc(F)c3c(cnn3C)c2N2CCOCC2)n1 [7, Peak 2] | < 0.1 |
| COc1cccc(F)c1-c1nccc(C(=O)Nc2cc(C)c3nn(C)cc3c2N2CCNCC2)n1 [18, Peak 1] | < 0.1 |
| COc1cccc(F)c1-c1nccc(C(=O)Nc2cc(C)c3c(cnn3C)c2N2CCNCC2)n1 [18, Peak 2] | < 0.1 |
| CCNC(=O)N1C[C@@H]2C[C@H]1CN2c1c(NC(=O)c2ccnc(-c3c(F)cccc3OC)n2)cc(F)c2c1cnn2C [Example 2, (1S,4S)—N-Ethyl-5-(7-fluoro-5-(2-(2-fluoro-6-methoxyphenyl)pyrimidine-4-carboxamido)-1-methyl-1H-indazol-4-yl)-2,5-diazabicyclo[2.2.1]heptane-2-carboxamide] | < 0.1 |
| COc1cccc(F)c1-c1nccc(C(=O)Nc2cc(F)c3c(cnn3C)c2N2CC(N)C2)n1 [Example 9, N-(4-(3-Aminoazetidin-1-yl)-7-fluoro-1-methyl-1H-indazol-5-yl)-2-(2-fluoro-6-methoxyphenyl)pyrimidine-4-carboxamide] | < 0.1 |
| COc1cccc(F)c1-c1nccc(C(=O)Nc2cc(F)c3c(cnn3C)c2C2CCNC2)n1 (centres unmarked) [Example 11, N-(7-Fluoro-1-methyl-4-(pyrrolidin-3-yl)-1H-indazol-5-yl)-2-(2-fluoro-6-methoxyphenyl)pyrimidine-4-carboxamide] | < 0.1 |
| COc1cccc(F)c1-c1nccc(C(=O)Nc2cc(F)c3c(cnn3C)c2N2CCCC2=O)n1 [Example 12, N-(7-Fluoro-1-methyl-4-(2-oxopyrrolidin-1-yl)-1H-indazol-5-yl)-2-(2-fluoro-6-methoxyphenyl)pyrimidine-4-carboxamide] | < 0.1 |

| Compound | Ki [µM] |
| --- | --- |
| COc1cccc(F)c1-c1nccc(C(=O)Nc2cc(F)c3c(cnn3C)c2-n2cccn2)n1 [Example 13, N-(7-Fluoro-1-methyl-4-(1H-pyrazol-1-yl)-1H-indazol-5-yl)-2-(2-fluoro-6-methoxyphenyl)pyrimidine-4-carboxamide] | < 0.1 |
| COc1cccc(F)c1-c1nccc(C(=O)Nc2cc(F)c3c(cnn3CCO)c2N2CC[C@@H](N)C2)n1 [Example 17, (R)—N-(4-(3-Aminopyrrolidin-1-yl)-7-fluoro-1-(2-hydroxyethyl)-1H-indazol-5-yl)-2-(2-fluoro-6-methoxyphenyl)pyrimidine-4-carboxamide] | < 0.1 |
| COc1cccc(F)c1-c1nccc(C(=O)Nc2cc(F)c3c(cnn3C)c2-c2cccnc2)n1 [Example 20, N-(7-Fluoro-1-methyl-4-(pyridin-3-yl)-1H-indazol-5-yl)-2-(2-fluoro-6-methoxyphenyl)pyrimidine-4-carboxamide] | < 0.1 |
| COc1cccc(F)c1-c1nccc(C(=O)Nc2cc(F)c3c(cnn3C)c2-c2cnn(C)c2)n1 [Example 21, N-(7-Fluoro-1-methyl-4-(1-methyl-1H-pyrazol-4-yl)-1H-indazol-5-yl)-2-(2-fluoro-6-methoxyphenyl)pyrimidine-4-carboxamide] | < 0.1 |
| COc1cccc(F)c1-c1nccc(C(=O)Nc2cc(F)c3c(cnn3C)c2-c2cccc(CO)c2)n1 [Example 22, N-(7-Fluoro-4-(3-(hydroxymethyl)phenyl)-1-methyl-1H-indazol-5-yl)-2-(2-fluoro-6-methoxyphenyl)pyrimidine-4-carboxamide] | < 0.1 |
| COc1cccc(F)c1-c1nccc(C(=O)Nc2cc(F)c3c(cnn3C)c2-c2ccccc2CO)n1 [Example 23, N-(7-Fluoro-4-(2-(hydroxymethyl)phenyl)-1-methyl-1H-indazol-5-yl)-2-(2-fluoro-6-methoxyphenyl)pyrimidine-4-carboxamide] | < 0.1 |
| COc1cccc(F)c1-c1nccc(C(=O)Nc2cc(F)c3c(cnn3C)c2-c2cccc(CN(C)C)c2)n1 [Example 24, N-(4-(3-((Dimethylamino)methyl)phenyl)-7-fluoro-1-methyl-1H-indazol-5-yl)-2-(2-fluoro-6-methoxyphenyl)pyrimidine-4-carboxamide] | < 0.1 |
| COc1cccc(F)c1-c1nccc(C(=O)Nc2cc(F)c3c(cnn3CCO)c2N2C[C@@H]3C[C@H]2CN3)n1 [Example 25, N-(4-((1S,4S)-2,5-diazabicyclo[2.2.1]heptan-2-yl)-7-fluoro-1-(2-hydroxyethyl)-1H-indazol-5-yl)-2-(2-fluoro-6-methoxyphenyl)pyrimidine-4-carboxamide] | < 0.1 |
| COCCn1ncc2c(N3C[C@@H]4C[C@H]3CN4)c(NC(=O)c3ccnc(-c4c(F)cccc4OC)n3)cc(F)c21 [Example 26, N-(4-((1S,4S)-2,5-diazabicyclo[2.2.1]heptan-2-yl)-7-fluoro-1-(2-methoxyethyl)-1H-indazol-5-yl)-2-(2-fluoro-6-methoxyphenyl)pyrimidine-4-carboxamide] | < 0.1 |
| COc1cccc(F)c1-c1nccc(C(=O)Nc2ccc3c(c(I)nn3C)c2N2CCC(N(C)C)CC2)n1 [Example 27, N-(4-(4-(Dimethylamino)piperidin-1-yl)-3-iodo-1-methyl-1H-indazol-5-yl)-2-(2-fluoro-6-methoxyphenyl)pyrimidine-4-carboxamide] | < 0.1 |
| COc1cccc(F)c1-c1nccc(C(=O)Nc2ccc3c(c(C)nn3C)c2N2CCC(N(C)C)CC2)n1 [Example 28, N-(4-(4-(Dimethylamino)piperidin-1-yl)-1,3-dimethyl-1H-indazol-5-yl)-2-(2-fluoro-6-methoxyphenyl)pyrimidine-4-carboxamide] | < 0.1 |
| COc1cccc(F)c1-c1nccc(C(=O)Nc2ccc3c(c(-c4ccccc4)nn3C)c2N2CCC(N(C)C)CC2)n1 [Example 29, N-(4-(4-(Dimethylamino)piperidin-1-yl)-1-methyl-3-phenyl-1H-indazol-5-yl)-2-(2-fluoro-6-methoxyphenyl)pyrimidine-4-carboxamide] | 0.1 to 0.5 |
| COc1cccc(F)c1-c1nccc(C(=O)Nc2ccc3c(c(-c4cnn(C)c4)nn3C)c2N2CCC(N(C)C)CC2)n1 [Example 30, N-(4-(4-(Dimethylamino)piperidin-1-yl)-1-methyl-3-(1-methyl-1H-pyrazol-4-yl)-1H-indazol-5-yl)-2-(2-fluoro-6-methoxyphenyl)pyrimidine-4-carboxamide] | < 0.1 |
| COCCn1ncc2c(N3C[C@@H](N)C[C@H]3CO)c(NC(=O)c3ccnc(-c4c(F)cccc4OC)n3)cc(F)c21 [Example 31, N-(4-((2S,4S)-4-Amino-2-(hydroxymethyl)pyrrolidin-1-yl)-7-fluoro-1-(2-methoxyethyl)-1H-indazol-5-yl)-2-(2-fluoro-6-methoxyphenyl)pyrimidine-4-carboxamide] | < 0.1 |
| COc1cccc(F)c1-c1nccc(C(=O)Nc2cc(F)c3c(cnn3[C@@H]3CCOC3)c2N2C[C@@H](N)C[C@H]2CO)n1 [Example 32, N-(4-((2S,4S)-4-Amino-2-(hydroxymethyl)pyrrolidin-1-yl)-7-fluoro-1-((R)-tetrahydrofuran-3-yl)-1H-indazol-5-yl)-2-(2-fluoro-6-methoxyphenyl)pyrimidine-4-carboxamide] | < 0.1 |
| COc1cccc(F)c1-c1nccc(C(=O)Nc2cc(F)c3nn(C)cc3c2N2CCN[C@@H](CO)C2)n1 [Example 33, (R)—N-(7-Fluoro-4-(3-(hydroxymethyl)piperazin-1-yl)-2-methyl-2H-indazol-5-yl)-2-(2-fluoro-6-methoxyphenyl)pyrimidine-4-carboxamide] | < 0.1 |
| COc1cccc(F)c1-c1nccc(C(=O)Nc2cc(F)c3c(cnn3-c3ccncc3C#N)c2N2C[C@@H](N)C[C@H]2CO)n1 [Example 34, N-(4-((2S,4S)-4-Amino-2-(hydroxymethyl)pyrrolidin-1-yl)-1-(3-cyanopyridin-4-yl)-7-fluoro-1H-indazol-5-yl)-2-(2-fluoro-6-methoxyphenyl)pyrimidine-4-carboxamide] | < 0.1 |
